In ChEMBL document CHEMBL4339210, “Synthesis and evaluation of histamine H3 receptor ligand based on lactam scaffold as agents for treating neuropathic pain” (Bioorg Med Chem Lett, 2019):
The source made the active and inactive calls. No cut-off for these calls is given here.

Tests used:
Histamine H1 receptor = Histamine H1 receptor (Cavia porcellus, UniProt P31389); experiment: Displacement of [3H]-mepyramine from histamine H1 receptor in guinea pig cerebellum homogenates incubated for 60 mins by Cheng and Prusoff equation analysis by scintillation counting analysis; format: tissue-based
Rattus norvegicus [1] = experiment: Anti-nociceptive activity in Sprague-Dawley rat assessed as reduction in total time spent licking injected paw during early phase (0 to 5 mins) at 40 mg/kg, po dosed 1 hr before formalin injection; format: functional, organism-based
Rattus norvegicus [2] = experiment: Anti-nociceptive activity in Sprague-Dawley rat assessed as reduction in total time spent licking injected paw during delayed phase (15 to 45 mins) at 40 mg/kg, po dosed 1 hr before formalin injection; format: functional, organism-based
Histamine H3 receptor = Histamine H3 receptor (Rattus norvegicus, UniProt Q9QYN8); experiment: Displacement of [3H]-N-alpha-methylhistamine from histamine H3 receptor in rat cerebral cortex homogenates incubated for 60 mins by Cheng and Prusoff equation analysis by scintillation counting analysis
[3] = Acute toxicity in KM mouse assessed as effect on survival at 50 to 1000 mg/kg, po after 24 hrs; format: organism-based; conditions: in vivo
Rattus norvegicus [4] = experiment: Anti-nociceptive activity in Sprague-Dawley rat assessed as reduction in total time spent licking injected paw during early phase (0 to 5 mins) at 1 to 10 mg/kg, po dosed 1 hr before formalin injection; format: functional
Rattus norvegicus [5] = experiment: Anti-nociceptive activity in Sprague-Dawley rat assessed as reduction in total time spent licking injected paw during delayed phase (15 to 45 mins) at 1 to 10 mg/kg, po dosed 1 hr before formalin injection; format: functional
Rattus norvegicus [6] = experiment: Anti-nociceptive activity in Sprague-Dawley rat assessed as reduction in total time spent licking injected paw during early phase (0 to 5 mins) at 1 mg/kg, po dosed 1 hr before formalin injection; format: functional, organism-based
Rattus norvegicus [7] = experiment: Anti-nociceptive activity in Sprague-Dawley rat assessed as reduction in total time spent licking injected paw during delayed phase (15 to 45 mins) at 1 mg/kg, po dosed 1 hr before formalin injection; format: functional, organism-based

Chain of Histamine H1 receptor (P31389 whole entry): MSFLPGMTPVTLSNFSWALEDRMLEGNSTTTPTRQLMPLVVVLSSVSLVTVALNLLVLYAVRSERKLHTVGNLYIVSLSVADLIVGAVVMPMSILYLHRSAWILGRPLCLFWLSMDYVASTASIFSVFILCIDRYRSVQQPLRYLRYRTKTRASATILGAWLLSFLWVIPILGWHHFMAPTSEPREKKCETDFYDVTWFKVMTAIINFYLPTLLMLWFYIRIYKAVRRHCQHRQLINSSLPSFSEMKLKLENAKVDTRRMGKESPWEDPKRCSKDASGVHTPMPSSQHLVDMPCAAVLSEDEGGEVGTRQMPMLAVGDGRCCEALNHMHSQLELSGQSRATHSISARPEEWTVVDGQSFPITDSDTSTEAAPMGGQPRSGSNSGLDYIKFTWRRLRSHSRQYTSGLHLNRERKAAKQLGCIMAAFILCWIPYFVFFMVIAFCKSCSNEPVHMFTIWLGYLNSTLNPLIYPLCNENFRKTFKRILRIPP
Chain of Histamine H3 receptor (Q9QYN8 whole entry): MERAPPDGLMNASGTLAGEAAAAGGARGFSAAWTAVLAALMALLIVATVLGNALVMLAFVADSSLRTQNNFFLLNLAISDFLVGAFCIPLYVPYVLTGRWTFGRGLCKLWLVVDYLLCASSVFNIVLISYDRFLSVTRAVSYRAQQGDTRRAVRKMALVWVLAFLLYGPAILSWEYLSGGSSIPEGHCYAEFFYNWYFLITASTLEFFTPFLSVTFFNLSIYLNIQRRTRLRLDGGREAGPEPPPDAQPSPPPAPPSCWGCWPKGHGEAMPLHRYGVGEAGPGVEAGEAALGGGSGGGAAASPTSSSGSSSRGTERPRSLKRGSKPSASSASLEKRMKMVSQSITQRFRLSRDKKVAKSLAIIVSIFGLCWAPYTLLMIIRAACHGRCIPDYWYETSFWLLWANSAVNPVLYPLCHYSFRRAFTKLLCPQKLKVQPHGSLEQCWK

For `CC1CCCCN1CCCOc1ccc2c(c1)C(=O)N(C)CC2` (stereo not drawn), the Ki (Histamine H1 receptor) was 165 nM.

With `CC(C)C[C@H](CN)CC(=O)O` the Activity (Rattus norvegicus [1]) was “Active” and the Activity (Rattus norvegicus [2]) was “Active”.

`CN1CCc2ccc(OCC(O)CN3CCOCC3)cc2C1=O` (stereo not drawn) showed a Ki (Histamine H1 receptor) greater than 2000 nM.

Work on `CN1CCc2ccc(OCCCN3CCCCC3)cc2C1=O` yielded a Ki (Histamine H1 receptor) of 23 nM and a Ki (Histamine H3 receptor) of 189 nM.

`CN1CCc2ccc(OCCCN3CCC(O)CC3)cc2C1=O` showed a Ki (Histamine H1 receptor) of 35 nM and a Ki (Histamine H3 receptor) of 908 nM.

`CCN1CCN(CCCOc2ccc3c(c2)C(=O)N(C)CC3)CC1` showed a Ki (Histamine H1 receptor) of 1100 nM.

Work on `CCN1CCc2ccc(OCCCN3CCOCC3)cc2C1=O` yielded a Ki (Histamine H1 receptor) of 252 nM.

Work on `CN1CCc2ccc(OCCCN3CCOCC3)cc2C1=O` yielded a Ki (Histamine H1 receptor) of 6.5 nM, a Ki (Histamine H3 receptor) of 1030 nM and an LD50 at 24 h [3] greater than 1000 mg/kg. The Activity (Rattus norvegicus [4]) was “Dose-dependent effect”, the ED50 (Rattus norvegicus [4]) was 1.3 mg/kg and the Activity (Rattus norvegicus [5]) was “Dose-dependent effect”. The ED50 (Rattus norvegicus [5]) was 2.4 mg/kg.

In the case of `NC(=O)c1ccc(OCCCN2C[C@H]3CCC[C@H]3C2)cc1`, the Ki (Histamine H1 receptor) is reported as 3.6 nM, the Ki (Histamine H3 receptor) is reported as 426 nM and the Activity (Rattus norvegicus [6]) is reported as “Active”. For the same molecule, the Activity (Rattus norvegicus [7]) was “Active”.

With `CN1CCc2ccc(OCCCCN3CCOCC3)cc2C1=O` the Ki (Histamine H1 receptor) was 856 nM.

With `CC1CCN(CCCOc2ccc3c(c2)C(=O)N(C)CC3)CC1` the Ki (Histamine H1 receptor) was 32 nM and the Ki (Histamine H3 receptor) was 279 nM.

Molecule `CN1CCc2ccc(OCCCN3CCC(O)C3)cc2C1=O` (stereo not drawn) has a Ki (Histamine H1 receptor) of 112 nM.

Work on `CN1CCc2ccc(OCCCN3CCC(=O)CC3)cc2C1=O` yielded a Ki (Histamine H1 receptor) of 176 nM.

In the case of `CN1CCN(CCCOc2ccc3c(c2)C(=O)N(C)CC3)CC1`, the Ki (Histamine H1 receptor) is reported as 706 nM.

In the case of `CN1CCc2ccc(OCCCN3CCCC3)cc2C1=O`, the Ki (Histamine H1 receptor) is reported as 39 nM and the Ki (Histamine H3 receptor) is reported as 169 nM.

Work on `CCN(CC)CCCOc1ccc2c(c1)C(=O)N(C)CC2` yielded a Ki (Histamine H1 receptor) of 542 nM.

In the case of `CN1CCc2ccc(OCCN3CCOCC3)cc2C1=O`, the Ki (Histamine H1 receptor) is reported as 1210 nM.

For `CC1CCCN1CCCOc1ccc2c(c1)C(=O)N(C)CC2` (stereo not drawn), the Ki (Histamine H1 receptor) was 26 nM and the Ki (Histamine H3 receptor) was 68 nM.
